In PubChem BioAssay AID179 (DTP/NCI, 2004):
“And” between values parts separate entries of the source, which are not always exact repeats. Equal values may be shown once. The source made the active and inactive calls.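 How the source made its calls: active means compounds giving half or more protection of infected cells from virus-caused growth loss, again on retest; inactive means the rest.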 Where a SMILES comes first, the peptide text is derived from it. [ ]: non-standard residue; d: D form. Ava = NCCCCC(=O)O; Mpa = O=C(O)CCS

System: CEM cells HIV-1 protection, formazan growth assay
Experiment: NCI AIDS Antiviral Assay
Conditions: for IC50: measured here: growth of uninfected CEM cells
How it was run: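 Protection of CEM cells against HIV-1 measured as cell growth via soluble formazan read-out, with five concentrations tested on both infected and uninfected cells; failure to protect may reflect toxicity.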

| Structure (SMILES) | EC50 [µM] | IC50 | outcome |
| --- | --- | --- | --- |
| Clc1ccc(-c2c3nc(c(-c4ccc(Cl)cc4)c4ccc([nH]4)c(-c4ccc(Cl)cc4)c4nc(c(-c5ccc(Cl)cc5)c5ccc2[nH]5)C=C4)C=C3)cc1 | > 200 | > 200 µM | – |
| COc1cccc(NC(=S)/C(=C(/[O-])c2ccc([N+](=O)[O-])cc2)[n+]2ccccc2)c1 | > 200 | > 200 µM | – |
| Cc1cc(O)ccc1C1(c2ccc(F)cc2)OC(=O)c2ccccc21 (stereo not drawn) | – | – | inactive |
| CC1(C)CCC(Sc2ccccc2)O1 (stereo not drawn) | – | – | inactive |
| COc1cccc2c1C(=O)c1ccc3cc(CCl)cc(O)c3c1C2=O | > 200 | 0.468 µM | – |
| C[C@@H](NC(=O)Nc1cccc(C(=O)Nc2cc(C(C)(C)C)ccc2C(=O)O)n1)c1ccccc1 | > 200 | 17.4 µM | – |
| COc1ccc(C2C3=C(N=C4SC(C(C)=O)=C(C)N42)c2ccccc2CC3)cc1 (stereo not drawn) | > 200 | 17.4 µM | – |
| N#Cc1ccccc1C(Cl)(Cl)c1cnccn1 | > 490 | 64.6 µM | – |
| CCN(CC)CCNc1cccc2oc3ccc(OS(=O)(=O)c4ccc(C)cc4)cc3c(=O)c12 | > 15.1 | 6.31 µM | – |
| O=Nc1cc(S(=O)(=O)O)c2ccccc2c1O | > 200 | > 200 µM | – |
| Nc1ccc(I)cn1 | > 200 | > 200 µM | – |
| O=C(C(Cl)=C(N1CCCCC1)N1CCCCC1)C(Cl)Cl | > 200 | 174 µM | – |
| CCC[N+]1=C/c2ccccc2OC(=O)/C=C\1[O-] | > 200 | > 200 µM | – |
| C=C1C(=O)C23OC2C1CCC(=O)C1(C)CC[C@H](OC(C)=O)C(C)(C)[C@H]1CC3O (stereo partly drawn) | > 200 | 1.2 µM | – |
| O=C([O-])c1ccccn1.O=C([O-])c1ccccn1.[Cu+2] | > 200 | 7.76 µM | – |
| NCCCN=c1ccc2c3c1c(O)c1c(O)ccc(=O)c1c3[nH]n2CCNCCO | > 525 | 1.07 µM | – |
| CNC(=O)Nc1cc2c3c(c1)CCCN3CCC2 | 135 | 178 µM | – |
| Cc1cc(C)c(C(=O)/C(=C/c2ccccc2)c2ccccc2)c(C)c1 | > 15.8 | > 15.8 µM | – |
| NC(=S)N/N=C1\CCCC\C1=N/NC(N)=S | > 200 | 17.8 µM | – |
| CC1(C)NC(c2ccccc2)c2ccsc2-n2cccc21 (stereo not drawn) | > 200 | > 100 µM | – |
| COC(=O)CC[C@@H](NC(=O)C(C)NC(=O)COC1C(O)C(COC(=O)CCCCCCCCCCNC(=O)c2ccc([N+](=O)[O-])c3[nH]c4cc(Br)ccc4c(=O)c23)OC(OCc2ccccc2)C1NC(C)=O)C(N)=O (stereo partly drawn) | – | – | inactive |
| O=C([O-])c1n[nH]c([O-])c1N=Nc1ccc(/C=C/c2ccc(N=Nc3c(C(=O)[O-])n[nH]c3[O-])cc2S(=O)(=O)[O-])c(S(=O)(=O)[O-])c1.[Cu+2].[Cu+2].[Na+] | > 50.1 | > 50.1 µM | – |
| O=c1c(Cl)c(Cl)cnn1CCc1ccncc1 | > 132 | 7.08 µM | – |

| Structure (SMILES) | EC50 [µM] | IC50 | outcome |
| --- | --- | --- | --- |
| Cn1nc2n(c1=O)CCCN2 | > 200 | > 200 µM | – |
| O=C(Nc1nc2c(=O)[nH]cnc2s1)c1ccccc1 | > 200 | > 200 µM | – |
| CCNC(=S)N/N=C/c1cc([N+](=O)[O-])ccc1O | > 200 | 5.01 µM | – |
| O=[N+]([O-])/C(C(Cl)=C(Cl)Cl)=C(/Nc1ccccc1)Sc1ccccc1 | > 200 | 23.4 µM | – |
| COC(=O)c1c(-c2cc(OC)c(OC)c(OC)c2)oc2ccccc2c1=O | > 97.7 | 1.45 µM | – |
| NC(=O)OCc1c(-c2ccccc2)nn(-c2ccccc2)c1COC(N)=O | > 200 | > 200 µM | – |
| O=C(c1ccccc1)C1C[C@H]2CO[C@H](c3ccccc3)N2C1=O (stereo partly drawn) | > 200 | 69.2 µM | – |
| OC12c3ccccc3C3CCC4(OCCO4)C3C1c1ccccc12 (stereo not drawn) | > 200 | 141 µM | – |
| O=[N+]([O-])c1ccc(C2SCc3nc4ccccc4n32)cc1 (stereo not drawn) | > 55 | 33.1 µM | – |
| C=CCOC1(CC=C)C(=O)OC2C(O)COC21O (stereo not drawn) | > 200 | > 200 µM | – |
| NS(=O)(=O)c1ccc(NC(=S)/N=C/c2c(O)c3ccccc3oc2=O)cc1 | > 200 | 110 µM | – |
| CCC[CH2][Sn]([CH2]CCC)([S]c1cccc2cccnc12)[S]c1cccc2cccnc12 | – | – | inactive |
| COC1C2c3ccccc3C(C#N)(Cc3ccc4c(c32)OCO4)N1C(=O)c1ccccc1 (stereo not drawn) | – | – | inactive |
| CC1=C(C#N)c2nc3ccccc3n2C(=O)C1(C)CCO (stereo not drawn) | > 200 | > 200 µM | – |
| CO/C(=N\N=C\c1ccc(Cl)cc1)c1ccncc1 | > 200 | > 200 µM | – |
| O=C1N[C@H](C(=O)O)[C@@H](c2ccc(OCc3ccccc3)cc2)O1 | > 200 | > 200 µM | – |
| CCOC(=O)C1C2c3ccccc3C(c3ccccc32)C1C(=O)OCC (stereo not drawn) | > 200 | > 200 µM | – |
| CC1(C)C2CCC1C(SC(=N)N)C2 (stereo not drawn) | > 200 | 43.7 µM | – |
| CC(C)(C)OC(=O)NC(CSCc1ccc(C(=O)c2ccccc2)cc1)C(=O)O (stereo not drawn) | > 200 | 50.1 µM | – |
| Nc1ccc(CCN2CCN(c3cccc(C(F)(F)F)c3)CC2)cc1I | – | – | inactive |
| COC(=O)c1cc(Cl)ccc1NC(=O)c1ccc([N+](=O)[O-])cc1 | – | – | inactive |
| CC(C)C1=C[C@H](c2ccccc2)c2ccccc2C1C(C#N)(C#N)C(C)C (stereo partly drawn) | > 1.48 | > 1.48 µM | – |
| COc1ccccc1NC(=O)CC(=O)n1nc(C)c(N=Nc2ccccc2F)c1C | – | – | inactive |

| Structure (SMILES) | EC50 [µM] | IC50 | outcome |
| --- | --- | --- | --- |
| O=NN1C(c2ccccc2)CC(=NO)CC1c1ccccc1 (stereo not drawn) | > 200 | 129 µM | – |
| COC(=O)C(Cl)=C1CC1 | > 1700 | 93.3 µM | – |
| C=CCC12CC(COc3ccccc3C(N)=O)OC1=Nc1ccccc1NC2=O (stereo not drawn) | > 200 | > 200 µM | – |
| NS(=O)(=O)c1cc2c(cc1Cl)NC(/C(=N/NC(=O)c1ccncc1)C1C(=O)NC(=O)NC1=O)=NS2(=O)=O | > 87.1 | > 87.1 µM | – |
| O=C1NC(=O)C(=Cc2cccc(Br)c2)C(=O)N1 | > 123 | > 123 µM | – |
| CC1(C)C=CC2=C(O1)C(=O)c1ccccc1C2=O | > 200 | 32.4 µM and 26.9 µM | – |
| Cc1cc2c3ccccc3nc2c2cc[nH]c(C)c12 | > 110 | 5.25 µM | – |
| Cc1ccc2c(c1)C1C(CO2)C(c2ccccc2)=NN1c1ccccc1 (stereo not drawn) | > 105 | > 105 µM | – |
| Cc1ccc(C[N+](C)(C)N)cc1C | > 200 | > 200 µM | – |
| CN(C)CCCNC(CC#N)CCC#N (stereo not drawn) | > 200 | > 200 µM | – |
| COC1=NCN=C2SC=C(N)N=C12 | > 1070 | 562 µM | – |
| Cc1nc(-c2cc3cc([N+](=O)[O-])ccc3oc2=O)cs1 | > 200 | 74.1 µM | – |
| C=Cc1nc(C#N)c(N)o1 | – | – | inactive |
| CCCCCCOc1ccc(C(=O)NOCc2ccccc2)cc1 | > 200 | 66.1 µM | – |
| O=C(O)/C=C/c1ccc(/C=C/C(=O)O)cc1 | > 200 | > 200 µM | – |
| CCSCCCSCCSCC | > 158 | > 158 µM | – |
| c1ccc(Nc2nnc(-c3nsc4ccccc34)o2)cc1 | > 24.5 | > 24.5 µM | – |
| CCOC(=O)c1cn2ccccc2c(C(C)=O)c1=N | > 200 | 166 µM | – |
| CCN1CC2(C)CCC(OC)C34C5CC6CCC(O)(C5C(=O)O6)C(C(O)C23)C14 (stereo not drawn) | – | – | inactive |
| N#CCCN(CCN(C(=O)Nc1ccccc1)c1ccccc1)C(=O)Nc1ccccc1 | > 200 | 55 µM | – |
| CCN(CC)C(=O)c1cccc2c1OCO2 | > 1120 | > 1120 µM | – |
| Cc1cccc2c(=O)c3cccc([C@@H](C)C(=O)O)c3oc12 | > 200 | 67.6 µM | – |
| O=C1N[C@@H]2CCC[C@@H]2[C@@H]1c1ccc(Cl)cc1 | > 380 | 155 µM | – |

| Structure (SMILES) | EC50 [µM] | IC50 | outcome |
| --- | --- | --- | --- |
| Nn1c(=O)n(Cc2ccccc2)n(-c2ccccc2)c1=O | – | – | inactive |
| CCCCCCOCC(=O)O | > 200 | > 200 µM | – |
| Cc1sc2ccc3ccccc3c2[n+]1C | > 200 | 45.7 µM | – |
| O=C1CCC2(c3ccc(Cl)cc3)Nc3ccncc3N12 (stereo not drawn) | > 631 | 91.2 µM | – |
| Nc1nc(NCc2ccccc2)cc(NCc2ccccc2)n1 | > 20 | 2.75 µM | – |
| COc1ccc(OC)c(C(O)C(C)NC(C)(C)C)c1 (stereo not drawn) | > 200 | > 200 µM | – |
| O=C(c1ccc(Cl)cc1)c1ccc(OCC(=O)N2CCN(c3ccccc3)CC2)cc1 | > 12 | > 12 µM | – |
| O=C(NNCc1ccccc1O)c1ccccc1O | > 200 | 2.88 µM | – |
| O=C1c2ccccc2C(=O)c2c1ccc1conc21 | – | – | inactive |
| CC(NC(=O)CCS)C(=O)NC(C)C(=O)NC(Cc1c[nH]c2ccccc12)C(=O)NC(Cc1c[nH]cn1)C(=O)NC(CO)C(=O)NC(Cc1c[nH]c2ccccc12)C(=O)NCCCCC(=O)NC(C)C(=O)NC(CCC(N)=O)C(=O)NC(CCCCN)C(=O)NC(C)C(=O)NC(CCCNC(=N)N)C(=O)NC(CCCCN)C(N)=O (stereo not drawn) ([Mpa]AAWHSW[Ava]AQKARK-NH2; configuration not given here) | > 20 | > 20 µM | – |
| O=[N+]([O-])C(=C/C1CCCCC1)/C(=C\C1CCCCC1)[N+](=O)[O-] | > 200 | 4.57 µM | – |
| O=C1C2CC[C@@H]3C(=O)C(Cl)(Cl)[C@@H]3CCC2C1(Cl)Cl (stereo partly drawn) | > 200 | > 200 µM | – |
| O=C(O)c1cccc(Sc2ccccc2)c1 | > 407 | 251 µM | – |
| Cc1ccc(S/C=C/C(=O)Nc2ccccc2)cc1 | > 37.2 | > 37.2 µM and 25.1 µM | – |
| O=S(Cl)C(Cl)=C(Cl)Cl (stereo not drawn) | > 200 | 40.7 µM | – |
| COC(=O)N1C=CC2ON=C(OC)C2C1c1ccccc1 (stereo not drawn) | > 46.8 | > 46.8 µM | – |
| CCOC(=O)C(=O)/C(=C/n1c(=S)[nH]c2ccc([N+](=O)[O-])cc21)C(=O)OCC | > 200 | 77.6 µM | – |
| COc1cccc(C2CC23C(=O)NC(=O)NC3=O)c1 (stereo not drawn) | > 100 | > 100 µM | – |
| Cc1ccsc1/C=N/Nc1ccccn1 | > 200 | 21.4 µM | – |
| Cc1cccc(N(C(=O)Nc2ccc(Cl)c(Cl)c2)C2=NCC(C)S2)c1 (stereo not drawn) | > 200 | > 200 µM | – |
| O=S(=O)(c1ccc(Br)cc1)n1c2ccc(Br)cc2c2nc3ccccc3nc21 | > 100 | > 100 µM | – |
